From US9771360B2, “Cyano-substituted imidazo[1,2-A]pyridinecarboxamides and their use” (Bayer Pharma Aktiengesellschaft, priority 2014, dated 2017) come the findings set out here.

The target in the experiment is T1, recombinant guanylate cyclase reporter cell line (Rattus norvegicus, UniProt P19686+P20595).
T1 construct: expressed in transfected cells
T1 sequence (P20595 1-619): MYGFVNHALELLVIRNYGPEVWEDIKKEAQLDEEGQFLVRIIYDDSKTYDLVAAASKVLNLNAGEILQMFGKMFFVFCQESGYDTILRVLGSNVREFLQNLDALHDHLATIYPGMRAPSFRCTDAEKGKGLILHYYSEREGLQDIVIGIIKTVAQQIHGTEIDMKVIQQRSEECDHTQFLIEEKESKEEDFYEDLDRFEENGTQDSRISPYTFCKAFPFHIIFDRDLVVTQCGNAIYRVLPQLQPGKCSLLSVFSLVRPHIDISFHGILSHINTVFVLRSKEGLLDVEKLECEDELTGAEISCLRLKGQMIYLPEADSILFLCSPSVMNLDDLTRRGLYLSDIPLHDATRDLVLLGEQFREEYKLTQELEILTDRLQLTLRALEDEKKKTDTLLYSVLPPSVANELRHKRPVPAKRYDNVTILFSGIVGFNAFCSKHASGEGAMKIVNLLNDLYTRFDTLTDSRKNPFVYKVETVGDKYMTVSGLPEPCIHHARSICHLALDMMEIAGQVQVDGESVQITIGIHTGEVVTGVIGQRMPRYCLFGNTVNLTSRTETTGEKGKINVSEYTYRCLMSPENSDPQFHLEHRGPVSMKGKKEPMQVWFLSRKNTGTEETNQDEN
T1 sequence (P19686 1-690): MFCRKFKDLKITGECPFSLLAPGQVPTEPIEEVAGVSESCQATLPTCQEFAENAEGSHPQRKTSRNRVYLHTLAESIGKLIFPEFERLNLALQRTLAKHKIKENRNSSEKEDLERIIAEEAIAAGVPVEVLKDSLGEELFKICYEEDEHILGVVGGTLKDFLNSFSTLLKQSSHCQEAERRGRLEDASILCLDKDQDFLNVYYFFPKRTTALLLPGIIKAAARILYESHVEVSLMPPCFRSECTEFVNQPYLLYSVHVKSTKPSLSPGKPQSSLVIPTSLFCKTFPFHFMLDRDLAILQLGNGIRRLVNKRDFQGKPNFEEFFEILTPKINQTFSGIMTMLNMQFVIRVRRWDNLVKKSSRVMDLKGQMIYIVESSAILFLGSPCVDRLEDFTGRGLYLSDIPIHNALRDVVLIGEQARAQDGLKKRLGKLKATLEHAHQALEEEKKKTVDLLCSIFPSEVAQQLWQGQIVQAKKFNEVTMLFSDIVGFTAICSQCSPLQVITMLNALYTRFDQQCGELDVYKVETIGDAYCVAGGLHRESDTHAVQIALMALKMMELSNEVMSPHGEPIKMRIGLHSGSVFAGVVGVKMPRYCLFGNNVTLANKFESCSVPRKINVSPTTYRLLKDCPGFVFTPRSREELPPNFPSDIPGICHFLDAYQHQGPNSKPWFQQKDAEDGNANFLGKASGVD
Kind of experiment: Effect on a recombinant guanylate cyclase reporter cell line (B-2). It is filed as cell-based. To be noted: MEC = minimum effective concentration; in some cases mean values from individual determinations. As to the method: B-2. Effect on a Recombinant Guanylate Cyclase Reporter Cell Line
The cellular activity of the compounds according to the invention is determined using a recombinant guanylate cyclase reporter cell line, as described in F. Wunder et al., Anal. Biochem. 339, 104-112 (2005).
Representative MEC values (MEC=minimum effective concentration) for the compounds of the invention are shown in the table below (in some cases as mean values from individual determinations): […]
On to `Cc1cc(OCc2c(F)cccc2F)c2nc(C)c(C(=O)NCC(N)CC#N)n2c1` (single isomer, unassigned) [Example 42, ent-N-(2-Amino-3-cyanopropyl)-8-[(2,6-difluorobenzyl)oxy]-2,6-dimethylimidazo[1,2-a]pyridine-3-carboxamide], for which the MEC is 1 µM.
Regarding `Cc1cc(OCc2c(F)cccc2F)c2nc(C)c(C(=O)NC3(C#N)CC3)n2c1` [Example 4, N-(1-cyanocyclopropyl)-8-[(2,6-difluorobenzyl)oxy]-2,6-dimethylimidazo[1,2-a]pyridine-3-carboxamide], the MEC was found to be 0.3 µM.
On to `Cc1cc(OCc2c(F)cccc2F)c2nc(C)c(C(=O)NC(C)(C)C#N)n2c1` [Example 3, N-(2-cyanopropan-2-yl)-8-[(2,6-difluorobenzyl)oxy]-2,6-dimethylimidazo[1,2-a]pyridine-3-carboxamide], for which the MEC was 0.1 µM.
Take `Cc1cc(OCc2c(F)cccc2F)c2nc(C)c(C(=O)NCC3CCC(C#N)CC3)n2c1` (stereo not drawn) [Example 12, N-[(4-cyanocyclohexyl)methyl]-8-[(2,6-difluorobenzyl)oxy]-2,6-dimethylimidazo[1,2-a]pyridine-3-carboxamide]: the MEC was 0.1 µM.
In the case of `Cc1cc(OCc2c(F)cccc2F)c2nc(C)c(C(=O)NC(C#N)c3ccc(Cl)cc3)n2c1` (racemic) [Example 8, rac-N-[(4-chlorophenyl)(cyano)methyl]-8-[(2,6-difluorobenzyl)oxy]-2,6-dimethylimidazo[1,2-a]pyridine-3-carboxamide], the MEC is 0.1 µM.
In the case of `Cc1cc(OCc2c(F)cccc2F)c2nc(C)c(C(=O)NCC(N)CC#N)n2c1` (single isomer, unassigned) [Example 43, ent-N-(2-Amino-3-cyanopropyl)-8-[(2,6-difluorobenzyl)oxy]-2,6-dimethylimidazo[1,2-a]pyridine-3-carboxamide], the MEC turned out to be 1 µM.
With `Cc1cc(OCc2ncccc2F)c2nc(C)c(C(=O)NC(C#N)c3ccc(Cl)cc3)n2c1` (racemic) [Example 19, rac-N-[(4-chlorophenyl)(cyano)methyl]-8-[(3-fluoropyridin-2-yl)methoxy]-2,6-dimethylimidazo[1,2-a]pyridine-3-carboxamide], the MEC amounted to 1 µM.
`Cc1cc(OCc2c(F)cccc2F)c2nc(C)c(C(=O)NC3(C#N)CCC3)n2c1` [Example 5, N-(1-cyanocyclobutyl)-8-[(2,6-difluorobenzyl)oxy]-2,6-dimethylimidazo[1,2-a]pyridine-3-carboxamide]: the MEC stood at 0.03 µM.
With `CCC(CC#N)NC(=O)c1c(C)nc2c(OCc3c(F)cccc3F)cc(C)cn12` (racemic) [Example 13, rac-N-(1-cyanobutan-2-yl)-8-[(2,6-difluorobenzyl)oxy]-2,6-dimethylimidazo[1,2-a]pyridine-3-carboxamide] the figure was 1 µM; with `Cc1cc(OCc2c(F)cccc2F)c2nc(C)c(C(=O)NC(CN)CC#N)n2c1` (racemic) [Example 39, rac-N-(1-Amino-3-cyanopropan-2-yl)-8-[(2,6-difluorobenzyl)oxy]-2,6-dimethylimidazo[1,2-a]pyridine-3-carboxamide], 1 µM; with `COc1ccc(F)c(COc2cc(C)cn3c(C(=O)NC(C#N)c4ccc(Cl)cc4)c(C)nc23)c1F` (racemic) [Example 22, rac-N-[(4-chlorophenyl)(cyano)methyl]-8-[(2,6-difluoro-3-methoxybenzyl)oxy]-2,6-dimethylimidazo[1,2-a]pyridine-3-carboxamide], 3 µM.
As for `COc1cc(OCc2c(F)cccc2F)c2nc(C)c(C(=O)NC(C#N)c3ccc(Cl)cc3)n2c1` (racemic) [Example 28, rac-N-[(4-chlorophenyl)(cyano)methyl]-8-[(2,6-difluorobenzyl)oxy]-6-methoxy-2-methylimidazo[1,2-a]pyridine-3-carboxamide], the MEC came to 1 µM.
For `Cc1cc(OC(C)c2c(F)cccc2F)c2nc(C)c(C(=O)NC(C#N)c3ccc(Cl)cc3)n2c1` (stereo not drawn) [Example 26, N-[(4-chlorophenyl)(cyano)methyl]-8-[1-(2,6-difluorophenyl)ethoxy]-2,6-dimethylimidazo[1,2-a]pyridine-3-carboxamide], the MEC amounted to 10 µM.
With `Cc1nc2c(OCc3c(F)cccc3F)cc(Cl)cn2c1C(=O)NC(C#N)c1ccc(Cl)cc1` (racemic) [Example 29, rac-6-chloro-N-[(4-chlorophenyl)(cyano)methyl]-8-[(2,6-difluorobenzyl)oxy]-2-methylimidazo[1,2-a]pyridine-3-carboxamide] the figure was 1 µM; with `Cc1cc(OCc2c(F)cccc2F)c2nc(C)c(C(=O)NC(C)C#N)n2c1` (racemic) [Example 1, rac-N-(1-Cyanoethyl)-8-[(2,6-difluorobenzyl)oxy]-2,6-dimethylimidazo[1,2-a]pyridine-3-carboxamide], 0.55 µM.
As to `Cc1cc(OCc2c(F)cccc2F)c2nc(C)c(C(=O)Nc3[nH]ncc3C#N)n2c1` [Example 33, N-(4-cyano-1H-pyrazol-5-yl)-8-[(2,6-difluorobenzyl)oxy]-2,6-dimethylimidazo[1,2-a]pyridine-3-carboxamide], the MEC is 1 µM.
As for `Cc1cc(OCc2c(F)cccc2F)c2nc(C)c(C(=O)NC(C)(C#N)C3CC3)n2c1` (racemic) [Example 6, rac-N-(1-cyano-1-cyclopropylethyl)-8-[(2,6-difluorobenzyl)oxy]-2,6-dimethylimidazo[1,2-a]pyridine-3-carboxamide], the MEC was found to be 0.1 µM.
As to `COCC(C)(C#N)NC(=O)c1c(C)nc2c(OCc3c(F)cccc3F)cc(C)cn12` (racemic) [Example 7, rac-N-(2-cyano-1-methoxypropan-2-yl)-8-[(2,6-difluorobenzyl)oxy]-2,6-dimethylimidazo[1,2-a]pyridine-3-carboxamide], the MEC is 0.3 µM.
As to `Cc1cc(OCc2c(F)cccc2F)c2nc(C)c(C(=O)NCC(N)CCC#N)n2c1` (racemic) [Example 44, rac-N-(2-Amino-4-cyanobutyl)-8-[(2,6-difluorobenzyl)oxy]-2,6-dimethylimidazo[1,2-a]pyridine-3-carboxamide], the MEC came to 1 µM.
For `Cc1cc(OCCC(C)C)c2nc(C)c(C(=O)NC(C#N)c3ccc(Cl)cc3)n2c1` (racemic) [Example 25, rac-N-[(4-chlorophenyl)(cyano)methyl]-2,6-dimethyl-8-(3-methylbutoxy)imidazo[1,2-a]pyridine-3-carboxamide], the MEC was 3 µM.
With `Cc1cc(OCc2c(F)cccc2F)c2nc(C)c(C(=O)NCC(N)CCCC#N)n2c1` (single isomer, unassigned) [Example 47, ent-N-(2-Amino-5-cyanopentyl)-8-[(2,6-difluorobenzyl)oxy]-2,6-dimethylimidazo[1,2-a]pyridine-3-carboxamide], the MEC worked out at 1 µM.
With `Cc1cc(OCc2c(F)cccc2F)c2nc(C)c(C(=O)NC(C)C#N)n2c1` (single isomer, unassigned) [Example 16, ent-N-(1-Cyanoethyl)-8-[(2,6-difluorobenzyl)oxy]-2,6-dimethylimidazo[1,2-a]pyridine-3-carboxamide] the figure was 0.3 µM; with `Cc1cc(OCc2c(F)cccc2F)c2nc(C)c(C(=O)NC(C#N)C(N)=O)n2c1` (racemic) [Example 34, rac-N-(2-amino-1-cyan-2-oxoethyl)-8-[(2,6-difluorobenzyl)oxy]-2,6-dimethylimidazo[1,2-a]pyridine-3-carboxamide], 1 µM.
Take `CCc1nc2c(OCc3c(F)cccc3F)cc(C)cn2c1C(=O)NC(C#N)c1ccc(Cl)cc1` (racemic) [Example 27, rac-N-[(4-chlorophenyl)(cyano)methyl]-8-[(2,6-difluorobenzyl)oxy]-2-ethyl-6-methylimidazo[1,2-a]pyridine-3-carboxamide]: the MEC stood at 0.3 µM.
